Measurements reported in ChEMBL document CHEMBL5608191, “Structure-based discovery of novel piperidine-biphenyl-DAPY derivatives as non-nucleoside reverse transcriptase inhibitors featuring improved potency, safety, and selectivity: From piperazine-biphenyl-DAPYs to piperidine-biphenyl-DAPYs” (Eur J Med Chem, 2024).
Converted amounts (≈) assume the structure as drawn.

How the values were obtained:
Cytochrome P450 2D6 = Cytochrome P450 2D6 (Homo sapiens, UniProt P10635); experiment: Inhibition of CYP2D6 (unknown origin); type: ADME
Cytochrome P450 3A4 [1] = target: T1, Cytochrome P450 3A4 (Homo sapiens, UniProt P08684); experiment: Inhibition of CYP3A4 (unknown origin); type: ADME
Cytochrome P450 2C9 = Cytochrome P450 2C9 (Homo sapiens, UniProt P11712); experiment: Inhibition of CYP2C9 (unknown origin); type: ADME
[2] = Acute toxicity in mouse assessed as apparent pathological damage in heart treated for 14 days by H and E staining based analysis; type: tissue-based; conditions: in vivo, 336 h, time 14 day
[3] = test system: Human immunodeficiency virus 1; experiment: Antiviral activity against HIV-1 harboring RT E138K mutant infected in human MT4 cells assessed as protection against virus-induced cytopathic effect incubated for 5 days by MTT assay; type: functional, organism-based; conditions: Human immunodeficiency virus 1, MT4, 120 h
[4] = test system: Human immunodeficiency virus 1; experiment: Antiviral activity against HIV-1 harboring RT Y181C mutant infected in human MT4 cells assessed as protection against virus-induced cytopathic effect incubated for 5 days by MTT assay; type: functional, organism-based; conditions: Human immunodeficiency virus 1, MT4, 120 h
Cytochrome P450 1A2 = target: T2, Cytochrome P450 1A2 (Homo sapiens, UniProt P05177); experiment: Inhibition of CYP1A2 (unknown origin); type: ADME
T2 sequence (P05177 whole entry): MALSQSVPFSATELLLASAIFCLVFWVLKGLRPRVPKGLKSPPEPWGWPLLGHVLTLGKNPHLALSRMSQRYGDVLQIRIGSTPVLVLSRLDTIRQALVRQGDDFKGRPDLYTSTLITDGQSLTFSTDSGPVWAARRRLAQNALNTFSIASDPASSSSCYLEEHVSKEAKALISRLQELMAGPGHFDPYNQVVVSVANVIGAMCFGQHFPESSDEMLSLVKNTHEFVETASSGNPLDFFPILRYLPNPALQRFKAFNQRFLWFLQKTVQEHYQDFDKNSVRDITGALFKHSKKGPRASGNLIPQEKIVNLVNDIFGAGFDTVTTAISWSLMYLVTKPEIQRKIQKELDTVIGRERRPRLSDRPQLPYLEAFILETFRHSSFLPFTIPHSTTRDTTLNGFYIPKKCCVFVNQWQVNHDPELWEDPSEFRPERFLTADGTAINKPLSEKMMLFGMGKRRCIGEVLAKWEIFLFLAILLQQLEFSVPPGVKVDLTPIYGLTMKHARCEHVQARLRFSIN

[5] = Cytotoxicity against human MT4 cells assessed as reduction in cell viability incubated for 5 days by MTT assay; type: toxicity, cell-based; conditions: time 5 day
[6] = Acute toxicity in mouse assessed as apparent pathological damage in kidney treated for 14 days by H and E staining based analysis; conditions: in vivo, 336 h, time 14 day
Cytochrome P450 2C19 = Cytochrome P450 2C19 (Homo sapiens, UniProt P33261); experiment: Inhibition of CYP2C19 (unknown origin); type: ADME
[7] = target: Human immunodeficiency virus type 1 reverse transcriptase (Human immunodeficiency virus 1, UniProt Q72547); experiment: Inhibition of recombinant wild-type HIV-1 reverse transcriptase incubated for 40 mins by fluorescence based assay
[8] = test system: Human immunodeficiency virus 1; experiment: Antiviral activity against wild-type HIV-1 IIIB infected in human MT4 cells assessed as protection against virus-induced cytopathic effect incubated for 5 days by MTT assay; type: functional, organism-based; conditions: Human immunodeficiency virus 1, IIIB, MT4, 120 h
[9] = Selectivity index, ratio of CC50 for human MT4 cells to EC50 for wild-type HIV-1 IIIB infected in human MT4 cells; type: toxicity, cell-based; conditions: read-out: Ratio CC50/EC50
[10] = test system: Human immunodeficiency virus 1; experiment: Antiviral activity against HIV-1 harboring RT K103N mutant infected in human MT4 cells assessed as protection against virus-induced cytopathic effect incubated for 5 days by MTT assay; type: functional, organism-based; conditions: Human immunodeficiency virus 1, MT4, 120 h
[11] = Acute toxicity in mouse assessed as apparent pathological damage in liver treated for 14 days by H and E staining based analysis; type: tissue-based; conditions: in vivo, 336 h, time 14 day
[12] = Acute toxicity in mouse assessed as animal death treated for 14 days; conditions: in vivo, 336 h, time 14 day
[13] = Acute toxicity in mouse assessed as drug tolerance at 2 g/kg treated for 14 days; conditions: in vivo, 2000 mg/kg, 336 h, time 14 day
Cytochrome P450 3A4 [14] = target: T1, Cytochrome P450 3A4; experiment: Inhibition of CYP3A4 (unknown origin) using testosterone as substrate; type: ADME
[15] = Acute toxicity in mouse assessed as toxic symptoms treated for 14 days; conditions: in vivo, 336 h, time 14 day
[16] = Acute toxicity in mouse assessed as change in body weight treated for 14 days; conditions: in vivo, 336 h, time 14 day
[17] = Solubility of compound in phosphate buffer at pH 2 by HPLC analysis; type: physicochemical
[18] = Solubility of compound in phosphate buffer at pH 7 by HPLC analysis; type: physicochemical
[19] = Acute toxicity in mouse assessed as apparent pathological damage in brain treated for 14 days by H and E staining based analysis; type: tissue-based; conditions: in vivo, 336 h, time 14 day
[20] = Acute toxicity in mouse assessed as apparent pathological damage in lung treated for 14 days by H and E staining based analysis; type: tissue-based; conditions: in vivo, 336 h, time 14 day
[21] = Acute toxicity in mouse assessed as apparent pathological damage in spleen treated for 14 days by H and E staining based analysis; type: tissue-based; conditions: in vivo, 336 h, time 14 day
[22] = Solubility of compound in phosphate buffer at pH 7.4 by HPLC analysis; type: physicochemical
[23] = Solubility of compound in water by HPLC analysis; type: physicochemical
[24] = test system: Human immunodeficiency virus 1; experiment: Antiviral activity against HIV-1 harboring RT Y188L mutant infected in human MT4 cells assessed as protection against virus-induced cytopathic effect incubated for 5 days by MTT assay; type: functional, organism-based; conditions: Human immunodeficiency virus 1, MT4, 120 h
[25] = test system: Human immunodeficiency virus 1; experiment: Antiviral activity against HIV-1 harboring RT L100I mutant infected in human MT4 cells assessed as protection against virus-induced cytopathic effect incubated for 5 days by MTT assay; type: functional, organism-based; conditions: Human immunodeficiency virus 1, MT4, 120 h
Cytochrome P450 3A4 [26] = target: T1, Cytochrome P450 3A4; experiment: Inhibition of CYP3A4 (unknown origin) using midazolam as substrate; type: ADME
[27] = target: Voltage-gated inwardly rectifying potassium channel KCNH2 (Homo sapiens, UniProt Q12809); experiment: Inhibition of hERG expressed in CHO cells; type: toxicity, cell-based
Chain of Voltage-gated inwardly rectifying potassium channel KCNH2 (Q12809 whole entry): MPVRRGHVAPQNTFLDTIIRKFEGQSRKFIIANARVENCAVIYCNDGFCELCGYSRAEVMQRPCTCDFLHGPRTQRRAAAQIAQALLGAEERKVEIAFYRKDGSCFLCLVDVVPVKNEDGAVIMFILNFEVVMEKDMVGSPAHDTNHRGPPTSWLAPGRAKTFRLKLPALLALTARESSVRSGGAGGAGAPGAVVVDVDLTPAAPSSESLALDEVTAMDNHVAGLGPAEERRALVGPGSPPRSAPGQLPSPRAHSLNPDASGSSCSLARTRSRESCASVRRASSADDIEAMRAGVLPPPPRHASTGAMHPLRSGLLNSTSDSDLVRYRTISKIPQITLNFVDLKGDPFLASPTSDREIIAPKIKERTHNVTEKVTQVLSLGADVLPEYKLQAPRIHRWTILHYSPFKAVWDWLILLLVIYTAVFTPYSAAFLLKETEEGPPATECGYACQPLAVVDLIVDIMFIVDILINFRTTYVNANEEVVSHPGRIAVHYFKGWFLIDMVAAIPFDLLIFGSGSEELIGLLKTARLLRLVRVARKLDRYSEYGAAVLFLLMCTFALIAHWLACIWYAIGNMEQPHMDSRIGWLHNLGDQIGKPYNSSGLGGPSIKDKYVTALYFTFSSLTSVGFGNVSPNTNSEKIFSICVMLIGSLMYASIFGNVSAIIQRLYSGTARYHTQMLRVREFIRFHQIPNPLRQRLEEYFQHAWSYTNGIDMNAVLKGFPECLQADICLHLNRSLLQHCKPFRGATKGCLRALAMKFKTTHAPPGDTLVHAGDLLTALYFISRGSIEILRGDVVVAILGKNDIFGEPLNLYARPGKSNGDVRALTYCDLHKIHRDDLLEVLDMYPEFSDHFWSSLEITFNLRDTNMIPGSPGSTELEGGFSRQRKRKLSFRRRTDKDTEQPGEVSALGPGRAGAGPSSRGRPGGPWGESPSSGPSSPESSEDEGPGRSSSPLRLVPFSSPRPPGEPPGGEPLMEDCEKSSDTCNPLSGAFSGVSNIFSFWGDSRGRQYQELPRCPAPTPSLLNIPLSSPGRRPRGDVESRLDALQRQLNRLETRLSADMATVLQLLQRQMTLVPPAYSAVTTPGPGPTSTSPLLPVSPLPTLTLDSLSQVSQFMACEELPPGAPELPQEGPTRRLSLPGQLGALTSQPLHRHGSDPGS

T1 sequence (P08684 whole entry): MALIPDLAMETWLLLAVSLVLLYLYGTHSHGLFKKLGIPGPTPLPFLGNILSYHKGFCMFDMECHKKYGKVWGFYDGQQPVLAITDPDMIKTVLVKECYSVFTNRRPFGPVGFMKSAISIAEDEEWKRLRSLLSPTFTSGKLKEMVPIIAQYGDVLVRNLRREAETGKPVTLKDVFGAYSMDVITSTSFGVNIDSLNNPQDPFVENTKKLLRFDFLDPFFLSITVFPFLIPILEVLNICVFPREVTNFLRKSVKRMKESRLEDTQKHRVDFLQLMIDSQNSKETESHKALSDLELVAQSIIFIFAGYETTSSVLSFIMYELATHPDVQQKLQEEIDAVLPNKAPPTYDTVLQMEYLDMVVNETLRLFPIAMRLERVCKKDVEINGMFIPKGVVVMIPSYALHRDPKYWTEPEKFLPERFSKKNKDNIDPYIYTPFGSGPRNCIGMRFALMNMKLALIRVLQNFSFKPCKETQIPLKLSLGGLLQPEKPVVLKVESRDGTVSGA
Chain of Cytochrome P450 2D6 (P10635 whole entry): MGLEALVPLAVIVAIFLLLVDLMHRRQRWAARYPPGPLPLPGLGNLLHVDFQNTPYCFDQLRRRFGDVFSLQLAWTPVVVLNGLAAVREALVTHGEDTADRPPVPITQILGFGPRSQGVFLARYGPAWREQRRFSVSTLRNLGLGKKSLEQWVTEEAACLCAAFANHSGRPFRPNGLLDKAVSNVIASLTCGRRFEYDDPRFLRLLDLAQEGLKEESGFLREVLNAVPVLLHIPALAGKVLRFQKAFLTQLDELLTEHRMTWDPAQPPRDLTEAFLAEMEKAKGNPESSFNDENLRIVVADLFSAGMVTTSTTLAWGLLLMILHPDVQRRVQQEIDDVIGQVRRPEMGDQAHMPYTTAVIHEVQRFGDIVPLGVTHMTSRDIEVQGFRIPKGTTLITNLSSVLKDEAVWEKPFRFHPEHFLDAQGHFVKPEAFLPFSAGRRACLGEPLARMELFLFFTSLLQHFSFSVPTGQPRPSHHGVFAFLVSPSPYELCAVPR
Chain of Cytochrome P450 2C19 (P33261 whole entry): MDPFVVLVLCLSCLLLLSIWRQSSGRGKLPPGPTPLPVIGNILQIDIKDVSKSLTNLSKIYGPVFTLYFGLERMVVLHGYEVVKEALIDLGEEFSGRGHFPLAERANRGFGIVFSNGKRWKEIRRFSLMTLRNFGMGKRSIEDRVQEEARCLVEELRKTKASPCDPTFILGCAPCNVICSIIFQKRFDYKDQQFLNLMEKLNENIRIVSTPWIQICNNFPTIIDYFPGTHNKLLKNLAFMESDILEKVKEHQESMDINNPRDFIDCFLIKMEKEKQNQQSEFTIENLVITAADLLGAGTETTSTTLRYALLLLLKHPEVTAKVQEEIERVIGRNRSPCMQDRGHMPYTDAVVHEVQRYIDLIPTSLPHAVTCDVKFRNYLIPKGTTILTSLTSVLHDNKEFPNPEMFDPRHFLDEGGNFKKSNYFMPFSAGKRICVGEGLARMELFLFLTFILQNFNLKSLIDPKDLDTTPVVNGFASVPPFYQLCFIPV
Chain of Cytochrome P450 2C9 (P11712 whole entry): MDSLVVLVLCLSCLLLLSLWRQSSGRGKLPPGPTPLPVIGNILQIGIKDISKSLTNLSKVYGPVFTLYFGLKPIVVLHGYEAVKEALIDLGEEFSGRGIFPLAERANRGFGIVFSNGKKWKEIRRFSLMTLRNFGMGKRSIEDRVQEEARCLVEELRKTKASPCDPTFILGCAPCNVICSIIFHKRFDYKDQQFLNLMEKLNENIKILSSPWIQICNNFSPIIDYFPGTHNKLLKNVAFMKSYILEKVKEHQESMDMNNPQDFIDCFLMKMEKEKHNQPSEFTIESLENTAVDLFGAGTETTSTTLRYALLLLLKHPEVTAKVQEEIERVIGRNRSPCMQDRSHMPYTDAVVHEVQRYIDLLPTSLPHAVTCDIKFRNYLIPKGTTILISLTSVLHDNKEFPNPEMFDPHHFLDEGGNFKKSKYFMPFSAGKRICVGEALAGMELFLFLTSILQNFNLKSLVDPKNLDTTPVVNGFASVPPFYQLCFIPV

## COc1ccc2c(c1)[C@]13CCCC[C@@H]1[C@H](C2)N(C)CC3 [DEXTROMETHORPHAN]
Cytochrome P450 2D6
  IC50: 242 nM

## C[C@]12CC[C@H]3[C@@H](CCC4=CC(=O)CC[C@@]43C)[C@@H]1CC[C@@H]2O [TESTOSTERONE]
Cytochrome P450 3A4 [1]
  IC50: 37 nM

## CCOC(=O)c1cnc(NC2CCN(Cc3ccc(C(=O)NC)cc3)CC2)nc1Oc1c(C)cc(-c2ccc(C#N)cc2)cc1C
Cytochrome P450 2C9
  IC50: > 50000 nM
[2]
  Activity: Non-Toxic
[3]
  EC50: 47 nM
[4]
  EC50: 38 nM
Cytochrome P450 1A2
  IC50: > 50000 nM
[5]
  CC50 at 120 h: > 202000 nM
[6]
  Activity: Non-Toxic
Cytochrome P450 2C19
  IC50: > 50000 nM
[7]
  IC50: 713 nM
[8]
  EC50: 6 nM
[9]
  selectivity ratio: > 33100
[10]
  EC50: 7 nM
[11]
  Activity: Non-Toxic
[12]
  Activity: Non-Toxic
[13]
  Activity: Non-Toxic
Cytochrome P450 3A4 [14]
  IC50: > 50000 nM
[15]
  Activity: Non-Toxic
Cytochrome P450 2D6
  IC50: > 50000 nM
[16]
  Activity: Non-Toxic
[17]
  solubility: 109 µg/mL (≈ 177 µM)
[18]
  solubility: < 1 µg/mL
[19]
  Activity: Non-Toxic
[20]
  Activity: Non-Toxic
[21]
  Activity: Non-Toxic
[22]
  solubility: < 1 µg/mL
[23]
  solubility: < 1 µg/mL
[24]
  EC50: 63 nM
[25]
  EC50: 29 nM
Cytochrome P450 3A4 [26]
  IC50: > 50000 nM
[27]
  IC50: 25900 nM
